tested on: HBV rcDNA; assay: HepDE19 assay with bDNA quantitation of HBV rcDNA; assay type: cell-based, hepatitis B virus; details: HepDE19 assay, inhibition of formation of rcDNA; read-out: DE-19bDNA EC50
Summary of the method: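 Compounds, top concentration 25 μM in 8-point duplicate series, were applied to Tet-free HepDE19 cultures for 7 days. Branched-DNA quantitation of HBV rcDNA against untreated wells gave EC50 and EC90 by 4-parameter fit. Viability (CC50) came from ATP luminescence on parallel plates incubated 4 days.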

| Compound | EC50 |
| --- | --- |
| CC(C)CN(C(=O)Nc1ccc(F)c(Cl)c1)C(C)c1c[nH]c(=O)c2cnccc12 (single isomer, unassigned) [Compound 254, 3-(3-Chloro-4-fluorophenyl)-1-isobutyl-1-(1-(1-oxo-1,2-dihydro-2,7-naphthyridin-4-yl)ethyl)urea] | 16 nM |
| CC(C)CN(C(=O)Nc1ccc(F)c(Cl)c1)C(C)c1c[nH]c(=O)c2cnccc12 (single isomer, unassigned) [Compound 253, 3-(3-Chloro-4-fluorophenyl)-1-isobutyl-1-(1-(1-oxo-1,2-dihydro-2,7-naphthyridin-4-yl)ethyl)urea] | 1400 nM |
| Cc1[nH]c(=O)c2ccccc2c1C(C)N(C)C(=O)Nc1ccc(F)c(Cl)c1 (single isomer, unassigned) [Compound 222, 3-(3-Chloro-4-fluorophenyl)-1-methyl-1-(1-(3-methyl-1-oxo-1,2-dihydroisoquinolin-4-yl)ethyl)urea] | 620 nM |
| CC(c1c[nH]c(=O)c2ccccc12)N(CC1CCCC1)C(=O)Nc1ccc(F)c(Cl)c1 (single isomer, unassigned) [Compound 192, 3-(3-Chloro-4-fluorophenyl)-1-(cyclopentylmethyl)-1-(1-(1-oxo-1,2-dihydroisoquinolin-4-yl)ethyl)urea] | 420 nM |
| CC(c1c[nH]c(=O)c2ccccc12)N(CC1CCN(S(C)(=O)=O)CC1)C(=O)Nc1ccc(F)c(Cl)c1 (single isomer, unassigned) [Compound 204, 3-(3-Chloro-4-fluorophenyl)-1-((1-(methylsulfonyl)piperidin-4-yl)methyl)-1-(1-(1-oxo-1,2-dihydroisoquinolin-4-yl)ethyl)urea] | 60 nM |
| CCCn1cc(C(C)N(C)C(=O)Nc2ccc(F)c(Cl)c2)c2ccccc2c1=O (single isomer, unassigned) [Compound 185, 3-(3-Chloro-4-fluorophenyl)-1-methyl-1-(1-(1-oxo-2-propyl-1,2-dihydroisoquinolin-4-yl)ethyl)urea] | 340 nM |

same assay, conditions: HepDE19 assay, inhibition of formation of relaxed circular DNA (rcDNA), bDNA quantitation; read-out: DE-19bDNA EC50

| Compound | EC50 |
| --- | --- |
| CC(c1c[nH]c(=O)c2c(F)c(F)ccc12)N(C)C(=O)NCc1ccc(F)c(Cl)c1 (single isomer, unassigned) [Compound 496, 3-(3-Chloro-4-fluorobenzyl)-1-(1-(7,8-difluoro-1-oxo-1,2-dihydroisoquinolin-4-yl)ethyl)-1-methylurea] | 7700 nM |
| CCN(C(=O)Nc1ccc(F)c(F)c1)C(C)c1c[nH]c(=O)c2cc(F)c(F)cc12 (single isomer, unassigned) [Compound 422, 1-(1-(6,7-Difluoro-1-oxo-1,2-dihydroisoquinolin-4-yl)ethyl)-3-(3,4-difluorophenyl)-1-ethylurea] | 2800 nM |
| CC(c1c[nH]c(=O)c2ccccc12)N(Cc1ccncc1)C(=O)Nc1ccc(F)c(Cl)c1 (single isomer, unassigned) [Compound 309, 3-(3-Chloro-4-fluorophenyl)-1-(1-(1-oxo-1,2-dihydroisoquinolin-4-yl)ethyl)-1-(pyridin-4-ylmethyl) urea] | 11000 nM |
| CC(c1c[nH]c(=O)c2c(F)c(F)ccc12)N(CCCO)C(=O)Nc1ccc(F)c(Cl)c1 (single isomer, unassigned) [Compound 334, 3-(3-Chloro-4-fluorophenyl)-1-(1-(7,8-difluoro-1-oxo-1,2-dihydroisoquinolin-4-yl)ethyl)-1-(3-hydroxypropyl)urea] | 2000 nM |
| CC(c1c[nH]c(=O)c2c(F)cc(F)cc12)N(C)C(=O)Nc1ccc(F)cc1 (single isomer, unassigned) [Compound 370, 1-(1-(6,8-Difluoro-1-oxo-1,2-dihydroisoquinolin-4-yl)ethyl)-3-(4-fluorophenyl)-1-methylurea] | 5600 nM |

same assay, conditions: Hepatitis B virus, HepDE19, HepDE19 assay, inhibition of formation of rcDNA; read-out: DE-19bDNA EC50

| Compound | EC50 |
| --- | --- |
| COc1ncc(CNC(=O)Nc2ccc(F)c(Cl)c2)c2ccccc12 [Compound 6, 1-(3-Chloro-4-fluorophenyl)-3-((1-methoxyisoquinolin-4-yl)methyl)urea] | 9000 nM |
